Assay results taken from patent publication US20250325531A1, “TREATMENT OF SYSTOLIC DYSFUNCTION” (MyoKardia, Inc., priority 2024, published 2025).

Assay: Pharmacokinetics of single ascending doses (SAD Cohorts 1 and 2) in patients with stable HFrEF
Type: in vivo, human
Description: This example describes a study to establish preliminary safety and tolerability of single- and multiple-ascending oral doses of Compound I in ambulatory patients with stable heart failure with reduced ejection fraction (HFrEF). Key eligibility criteria included stable HFrEF of ischemic or nonischemic origin, treated with guideline-directed medical therapy (EF initial requirement during Screening was 20 to 45%, and was later changed by amendment to 15 to 35%). Subjects with active ischemia or severe or valvular heart disease were excluded. The study also aimed (1) to establish preliminary human PK of Compound I after single- and multiple-ascending oral doses of Compound I in patients with HFrEF; (2) to determine changes in left ventricular stroke volume (LVSV) derived from left ventricular outflow tract-velocity time integral (LVOT-VTI), left ventricular ejection fraction (LVEF) and change in left ventricular fractional shortening (LVFS) with Compound I after ascending single and multiple doses compared with Baseline and placebo as measured by transthoracic echocardiography (TTE); (3) to determine changes in systolic ejection time (SET) with Compound I after ascending single and multiple doses compared with Baseline and placebo as measured by TTE; and (4) to determine changes in pharmacodynamics (PD) dose/concentration effects (change in LVSV (derived from LVOT-VTI), LVEF, LVFS) with Compound I compared with Baseline and placebo after ascending single and multiple doses, as measured by TTE.
Part 1 was a randomized, crossover, DB, placebo-controlled, two-cohort, sequential ascending (oral) single-dose study in ambulatory patients with heart failure. All patients received placebo and 2 or 3 active doses of Compound I. Each patient underwent sequential, single-dose treatment events separated by no fewer than 5 days and no more than 14 days. Patients in Cohort 1 may also return for a fourth dosing period (open label) after the SRC reviews available data and recommends the dose. Patients enrolled prior to the implementation of Amendment 1 may be offered the opportunity to return for the open-label period. Patients in Cohort 2 participated in 2 to 4 dosing periods, based on SRC decision. Patients were randomized to one of the different dosing sequences outlined in FIG. 5A. Multiple patients could be dosed at the same time or during the same week depending on administrative issues, i.e., capacity and scheduling.
For each dosing period, patients were admitted to the clinical site on Day-1. Patients were assessed for absence of exclusion criteria (e.g., new lab abnormalities and/or conditions that indicate the patient is clinically unstable). They received Compound I or placebo in the morning of Day 1 followed by serial PK and PD assessments, as well as serial safety assessments. Patients were discharged on Day 3 (i.e., ˜48 hours following Day 1 dosing). An additional outpatient plasma PK sample was taken on the morning of Day 4 at 72 hours postdose.
Study medication consisted of Compound I 5 mg tablets, 25 mg tablets, 100 mg tablets, or matching placebo tablets. In Part 1 (SAD), Compound I or placebo was administered after an overnight fast (at least 6 hours), while in Part 2 (MAD), Compound I was administered after a 2 hour fast (Cohort A) or with food (Cohorts B, C, and D). The dose was ingested with a minimum of 240 mL of water, but more water was ingested as needed. The entire dose was administered over a period of up to 15 minutes. The time of dose used to determine future assessments was the time the last tablet was taken. In the cohorts for Part 2 (MAD), a BID regimen was used.
In Part 1 (SAD), patients fasted overnight (approximately 6 hours) through 4 hours postdose. With the exception of the water consumed with the dose, water could be ingested until approximately 1 hour prior to dosing and approximately 1 hour after dosing. If doses were split, subjects fasted 6 hours prior to the first half-dose. […]

What does the source list for `Cn1cc(S(=O)(=O)[C@@](C)(F)C2CCN(C(=O)Nc3ccon3)CC2)c(C(F)F)n1` [Compound I, (R)-4-(1-((3-(difluoromethyl)-1-methyl-1H-pyrazol-4-yl)sulfonyl)-1-fluoroethyl)-N-(isoxazol-3-yl) piperidine-1-carboxamide]?
mean (SD) Cmax (350 mg single dose, fasted): 2760 (856) ng/mL; AUC0-∞ (SAD Cohort 1, 175 mg (n = 8)): 53,800 hr × ng/mL; AUC0-∞ (SAD Cohort 1, 350 mg (n = 8)): 103,000 hr × ng/mL; Cmax (SAD Cohort 1, 350 mg (n = 8)): 2760 ng/mL; AUC0-∞ (SAD Cohort 1, 525 mg (n = 2)): 127,000 hr × ng/mL; AUC0-24 (SAD Cohort 1, 4th dose 350 mg (n = 1)): 70,100 hr × ng/mL
